From PMC5563081, “Modulating Protein-Protein Interactions of the Mitotic Polo-like Kinases to Target Mutant KRAS” (Cell Chemical Biology, 2017)
Where two headings read alike, the source gives them in different places. Non-standard residues stand in square brackets, D forms with d. No end group written: not given here. *: point of attachment. TAMRA = tetramethyl-6-carboxy-rhodamine, CN(C)c1ccc2c(-c3cc(C(=O)*)ccc3C(=O)[O-])c3ccc(N(C)C)cc3[o+]c2c1; pT = C[C@@H](OP(=O)(O)O)[C@H](N)C(=O)O

T1: PLK2-PBD(356-681), Polo-box domain of human Polo-like kinase 2 (human, UniProt Q9NYY3 356-681)
T1 construct: Polo-like kinase 2 (PLK2), human, Polo-box domain, residues 356-681; also called PLK2 PBD (aa356-681); PLK2 PDB; source: E. coli C41, purified (GST-Sepharose column, cleaved on column with PreScission protease, gel chromatography)
T1 sequence (looked up): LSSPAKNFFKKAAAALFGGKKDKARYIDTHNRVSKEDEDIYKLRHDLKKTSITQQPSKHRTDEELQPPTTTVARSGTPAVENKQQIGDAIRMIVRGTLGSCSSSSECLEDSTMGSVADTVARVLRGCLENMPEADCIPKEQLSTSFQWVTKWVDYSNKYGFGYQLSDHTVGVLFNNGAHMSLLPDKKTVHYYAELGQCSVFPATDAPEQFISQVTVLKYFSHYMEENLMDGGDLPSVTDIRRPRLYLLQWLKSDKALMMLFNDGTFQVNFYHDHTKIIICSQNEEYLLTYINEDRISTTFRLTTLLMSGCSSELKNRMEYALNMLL

B1: TAMRA-MAGPMQTS(pThreonine)PKNGAKK, consensus binding phosphopeptide used with the PLK2 PBD (peptide)
peptide: {TAMRA}-MAGPMQTS[pT]PKNGAKK
notes: the second T of 'TST' is phosphothreonine; also called phosphopeptide substrate; source: bought: Designer Bioscience

What was measured:
[1] = test system: SW48 parental (KRAS WT) cells; assay: Cell viability (SRB), SW48 parental; assay type: cell-based; conditions: Homo sapiens; SW48 KRAS WT, Crizotinib with DMSO, SRB 72 hr; read-out: GI50
Procedure: (§1) SW48 Parental, SW48 G12D, Panc-1, HPAF-II, Panc 02.03 and Panc 05.04 cell lines were seeded overnight at 5000 cells per well in a 96 well plate in recommended media (ATCC). Compounds were added the following day and viability was measured at 72h using the sulforhodamine B (SRB) colorimetric assay as follows. Cells were fixed by replacing media with 1% v/v Trichloroacetic Acid (TCA) (Sigma-Aldrich) at 4°C and incubated for 1h also at 4°C. Wells were washed thoroughly with copious amounts of deionised water before staining with Sulforhodamine B (SRB) (Sigma-Aldrich) solution (0.057% w/v in 1% v/v Acetic Acid (VWR)) for 30 min. Stain was aspirated and wells washed with several changes of 1% v/v Acetic Acid until unbound stain was removed, before air-drying. Bound stain was solubilized with 100μl / well 10mM Tris (pH 8.0) (Trizma Base (121.1) Sigma-Aldrich) with agitation for 10 min. Fluorescence intensity was recorded at Ex540nm / Em590nm using a BMG Pherastar Plus plate reader ([Vichai and Kirtikara, 2006]).

[2] = test system: SW48 KRAS G12D cells; assay: Cell viability (SRB), SW48 KRAS G12D; assay type: cell-based; conditions: Homo sapiens; SW48 KRAS G12D, Crizotinib with DMSO, SRB 72 hr; read-out: GI50
Procedure: as §1

[3] = test system: murine pancreatic organoids KRAS WT p53 MUT; assay: Viability of pancreatic organoids (CellTitre Glo 3D), KRAS WT; assay type: cell-based; conditions: Mus musculus; organoids KRAS WT p53 MUT, Crizotinib plus DMSO, n=2; read-out: Mean GI50
Procedure: (§2) Organoid cultures were prepared from the pancreas of LSL-Trp53^R172H/+, Pdx-1-Cre (for Kras WT organoids) or LSL-Trp53^R172H/+, LSL-Kras^G12D/+, Pdx-1-Cre (for Kras^G12D organoids KPC3760 and KPC26684) strains ([Hingorani et al., 2005]). Pancreatic ducts were manually picked after tissue mincing and overnight enzymatic digestion with 0.012% (w/v) collagenase XI (Sigma) and 0.012% (w/v) dispase (GIBCO) in DMEM media containing 1% FBS (GIBCO), before seeding in growth-factor-reduced (GFR) Matrigel (BD) ([Boj et al., 2015]).
(§3) Pancreatic organoids were extracted and cultured as detailed above ([Boj et al., 2015]). In brief, pancreatic organoids were seeded at 600 cells per well in a 96 well plate and allowed to grow for 7 days with media replenishment on the 3rd day. Full-grown organoids were then treated with compounds for 72h and viability determined using CellTitre Glo 3D assay (Promega). For viability assays with c-MET siRNA, cells were reverse transfected in a 6 cm dish using Dharmafect 1 (GE Dharmacon) per manufacturer’s instructions. On the following day, cells were trypsinised and plated onto 96 well plates or 6 well plates. The 96 well plates were treated with a dose range of compounds or DMSO, and viability was determined via SRB colorimetric assay. Cells in the 6 well plates were collected at the end of experiment to corroborate knockdown of c-MET by Western blotting.

[4] = test system: murine pancreatic organoids KRAS MUT p53 MUT; assay: Viability of pancreatic organoids (CellTitre Glo 3D), KRAS G12D; assay type: cell-based; conditions: Mus musculus; organoids KRAS MUT p53 MUT #2, Crizotinib plus DMSO, n=2; read-out: Mean GI50
Procedure: as §2, §3

[5] = test system: Panc-1; assay: Cell viability (SRB), Panc-1; assay type: cell-based, human; conditions: Homo sapiens
Procedure: as §1, §3
Cells were reverse-transfected with 50nM (SW48 parental, SW48 KRAS G12D and Panc-1) or 25nM (HeLa Flp-In T-REx parental cells) siRNA using Dharmafect (GE Dharmacon) as manufacturer’s recommendations. Where transfected cells were subsequently treated with compounds, the cells were allowed to settle overnight and then treated with compound at the indicated concentration the following day. Viability was assessed after 72 hrs, with the SRB colorimetric assay. Knockdown efficiencies were determined by Western blot or RT-qPCR. Oligos against the following target sequences were used. c-MET (Qiagen): […], […], […]. PLK1 (Qiagen): […]. PLK2 (SMARTpool; Dharmacon): ACACAGAAGGAGAACGAUA, CAUCAAUGAGGAUAGGAUA, CUGCCUAGUGUUACUGAUA, ACAAAGUCUACGCCGCAAA. PLK3 (SMARTpool; Dharmacon): GCGAGAAGAUCCUAAAUGA, GCAAGUGGGUUGACUACUC, GCACAUCCGUUGGCCAUCA, GACCUCAAGUUGGGAAAUU. PLK4 (Qiagen): […].

[6] = test system: Panc 02.03; assay: Cell viability (SRB), Panc 02.03; assay type: cell-based; conditions: Homo sapiens, Panc 02.03; read-out: Crizotinib GI50
Procedure: as §1
as §3, with “Cells in the 6 well plates were collected at the end of experiment to corroborate knockdown of c-MET by Western blotting.” left out
(§4) Cells were reverse-transfected with 50nM (SW48 parental, SW48 KRAS G12D and Panc-1) or 25nM (HeLa Flp-In T-REx parental cells) siRNA using Dharmafect (GE Dharmacon) as manufacturer’s recommendations. […] Viability was assessed after 72 hrs, with the SRB colorimetric assay. Knockdown efficiencies were determined by Western blot or RT-qPCR. […]

[7] = test system: Panc 05.04; assay: Cell viability (SRB), Panc 05.04; assay type: cell-based; conditions: Homo sapiens, Panc 05.04; Panc 04.05; read-out: Crizotinib GI50
Procedure: as §1
as §3, with “Cells in the 6 well plates were collected at the end of experiment to corroborate knockdown of c-MET by Western blotting.” left out
as §4

[8] = test system: DLD-1; assay: Cell viability, DLD-1; assay type: cell-based; conditions: Homo sapiens, read-out: Crizotinib GI50
[9] = test system: SW116; assay: Cell viability, SW1116; assay type: cell-based; conditions: Homo sapiens, read-out: Crizotinib GI50
[10] = test system: HT29; assay: Cell viability, HT29; assay type: cell-based; conditions: Homo sapiens, HT-29, read-out: Crizotinib GI50
[11] = biological target: T1, PLK2-PBD(356-681), Polo-box domain of …; assay: fluorescence polarisation; competition format: TAMRA-labelled phosphopeptide 10 nM, PBD 84 nM (2.5 ng/ul), PBS pH 7.4 plus 0.03% tween; compound and PBD incubated together at 22 C for 1 hour before the peptide was added; same procedure for PLK2 PBD with its own peptide; conditions: both partners purified

Row | Molecule | GI50 [1] | GI50 [2] | GI50 [3] | GI50 [4] | GI50 ([5]; PANC-1, 72 h, Panc-1, individual compound, 72 hr, Figure 7F/7G, read-out: Abs GI50) | GI50 ([5]; PANC-1, Panc-1, read-out: Crizotinib GI50) | EC50 ([5]; Panc-1, c-MET inhibitor alone, SRB 72 h, Figure S5C, read-out: EC50, % survival) | GI50 [6] | GI50 [7] | GI50 [8] | GI50 [9] | GI50 [10] | binding result [11]
1 | C[C@@H](Oc1cc(-c2cnn(C3CCNCC3)c2)cnc1N)c1c(Cl)ccc(F)c1Cl [Crizotinib, reference compound] | 560 ± 20 nM | 630 ± 10 nM | 17600 nM | 6800 nM | 2500 nM | 7240 nM | 3500 ± 1040 nM | 960 nM | 91 nM | 1620 nM | 4730 nM | 3850 nM | –
2 | B1 | – | – | – | – | – | – | – | – | – | – | – | – | binds
